Test results taken from the RepoRT retention time repository (doi:10.1007/s00216-021-03828-0).

How the values were obtained:
Conditions in all cases: stereoisomer not certain
[1] = RP, Merck Supelco Ascentis Express C18, 100 × 2.1 mm, 2 µm, 40 °C, 0.2 mL/min, estimated dead time 1.1 min; A: water + 0.1% formic acid, pH 3; B: acetonitrile + 0.1% formic acid, pH 3; gradient (min/%B) 0/5 2/5 17/99.9 20/99.9
[2] = as above; remark: listed apart in the source
[3] = RP, Merck Supelco Ascentis Express C18, 100 × 2.1 mm, 2 µm, 40 °C, 0.4 mL/min, estimated dead time 0.55 min; A: water + 0.1% formic acid, pH 3; B: acetonitrile + 0.1% formic acid, pH 3; gradient (min/%B) 0/5 2/5 17/99.9 20/99.9
[4] = as above; remark: listed apart in the source
[5] = RP, Merck Supelco Ascentis Express C18, 100 × 2.1 mm, 2 µm, 39 °C, 0.3 mL/min, estimated dead time 0.73 min; A: water + 0.1% formic acid, pH 3; B: acetonitrile + 0.1% formic acid, pH 3; gradient (min/%B) 0/5 2/5 17/99.9 20/99.9
[6] = RP, Merck Supelco Ascentis Express C18, 100 × 2.1 mm, 2 µm, 40 °C, 0.25 mL/min, estimated dead time 0.88 min; A: water + 0.1% formic acid, pH 3; B: acetonitrile + 0.1% formic acid, pH 3; gradient (min/%B) 0/5 2/5 17/99.9 20/99.9
[7] = RP, Merck Supelco Ascentis Express C18, 100 × 2.1 mm, 2 µm, 40 °C, 0.35 mL/min, estimated dead time 0.63 min; A: water + 0.1% formic acid, pH 3; B: acetonitrile + 0.1% formic acid, pH 3; gradient (min/%B) 0/5 2/5 17/99.9 20/99.9

| Structure (SMILES) | LC retention time [1] [min] | LC retention time [2] [min] | LC retention time [3] [min] | LC retention time [4] [min] | LC retention time [5] [min] | LC retention time [6] [min] | LC retention time [7] [min] |
| --- | --- | --- | --- | --- | --- | --- | --- |
| CC(CCC(=O)O)C1CCC2C3C(O)CC4CC(O)CCC4(C)C3CC(O)C12C (stereo not given) [CHOLATE] | 10.3 | 10.3 | 8.94 | 8.9 | 9.4 | 9.77 | 9.14 |
| NC(Cc1ccccc1)C(=O)O (stereo not given) [PHENYLALANINE] | 2.23 | 2.26 | 1.11 | 1.1 | 1.46 | 1.77 | 1.26 |
| O=C(O)CCCCCCCCCO [10-HYDROXYDECANOATE] | 8.03 | 8.02 | 6.58 | 6.55 | 7.1 | 7.49 | 6.8 |
| CC(C)=CCNc1ncnc2nc[nH]c12 [N6-(DELTA2-ISOPENTENYL)-ADENINE] | 5.58 | 5.58 | 4.24 | 4.21 | 4.71 | 5.08 | 4.44 |
| CC(=O)OCC(=O)C1(O)CCC2C3CCC4=CC(=O)CCC4(C)C3C(O)CC21C (stereo not given) [CORTISOL 21-ACETATE] | 9.62 | 9.62 | 8.09 | 8.05 | 8.64 | 9.05 | 8.33 |
| CSCCC(O)C(=O)O (stereo not given) [2-HYDROXY-4-(METHYLTHIO)BUTANOATE] | 3.75 | 3.75 | 1.9 | 1.86 | 2.49 | 3 | 2.15 |
| O=C(O)c1ccc2ccccc2c1O [1-HYDROXY-2-NAPHTHOATE] | 10.4 | 10.4 | 8.61 | 8.56 | 9.28 | 9.77 | 8.9 |
| O=C(O)Cc1cccc(O)c1 [3-HYDROXYPHENYLACETATE] | 7.01 | 7 | 5.17 | 5.14 | 5.94 | 6.34 | 5.5 |
| CC12CCC(=O)C=C1CCC1C2C(=O)CC2(C)C1CCC2(O)C(=O)CO (stereo not given) [CORTISONE] | 8.09 | 8.07 | 6.73 | 6.69 | 7.21 | 7.56 | 6.91 |
| CC12CCC(=O)C=C1CCC1C2CCC2(C)C1CCC2(O)C(=O)CO (stereo not given) [CORTEXOLONE] | 9.2 | 9.16 | 7.73 | 7.69 | 8.25 | 8.66 | 7.95 |
| O=C(O)c1ccccc1 [BENZOATE] | 7.03 | 7.03 | 5.28 | 5.23 | 4.34 | 6.4 | 5.55 |
| CC(=O)c1ccc(O)cc1O [2',4'-DIHYDROXYACETOPHENONE] | 7.01 | 7 | 5.17 | 5.14 | 5.94 | 6.34 | 5.5 |
| CC(=O)Oc1ccccc1 [PHENYL ACETATE] | 5.43 | 5.44 | 3.95 | 3.93 | 4.5 | 4.9 | 4.18 |
| Cn1c(=O)[nH]c2ncn(C)c2c1=O [PARAXANTHINE] | 3.98 | 3.96 | 2.16 | 2.15 | 2.81 | 3.33 | 2.47 |
| O=C(O)c1cc(=O)c2ccccc2[nH]1 [KYNURENATE] | 4.53 | 4.52 | 2.97 | 2.93 | 3.64 | 4 | 3.24 |
